Results reported in patent US20150315188A1, “COMPOUNDS AND METHODS FOR TREATMENT OF HYPERTENSION” (MEDIVATION TECHNOLOGIES, INC., priority 2012, published 2015).
Blank lines part the entries; values can stand above or below the compound they belong to.

Experiments:
Design in all cases: purchased Milipore (Millipore)
[1] = biological target: T1, Human adrenergic α2A receptor (Homo sapiens, UniProt P08913); experiment: Radioligand binding, adrenergic α2A (Protocol Group B); conditions: for inhibition at 0.1 µM / Percentage inhibition of ligand binding, Adrenergic α2A (0.1 μM): 0.1 μM compound; for inhibition at 0.1 µM / inhibition at 0.3 µM / Ki / Percentage inhibition of ligand binding, Adrenergic α2A (0.1 μM) / Percentage inhibition of ligand binding, Adrenergic α2A (0.3 μM): Protocol Group B; for inhibition at 0.1 µM: read-out: Percentage inhibition of ligand binding, Adrenergic α2A (0.1 μM); for inhibition at 0.3 µM / Percentage inhibition of ligand binding, Adrenergic α2A (0.3 μM): 0.3 μM compound; for inhibition at 0.3 µM: read-out: Percentage inhibition of ligand binding, Adrenergic α2A (0.3 μM); for Ki: estimated Ki
T1 sequence (P08913 1-465): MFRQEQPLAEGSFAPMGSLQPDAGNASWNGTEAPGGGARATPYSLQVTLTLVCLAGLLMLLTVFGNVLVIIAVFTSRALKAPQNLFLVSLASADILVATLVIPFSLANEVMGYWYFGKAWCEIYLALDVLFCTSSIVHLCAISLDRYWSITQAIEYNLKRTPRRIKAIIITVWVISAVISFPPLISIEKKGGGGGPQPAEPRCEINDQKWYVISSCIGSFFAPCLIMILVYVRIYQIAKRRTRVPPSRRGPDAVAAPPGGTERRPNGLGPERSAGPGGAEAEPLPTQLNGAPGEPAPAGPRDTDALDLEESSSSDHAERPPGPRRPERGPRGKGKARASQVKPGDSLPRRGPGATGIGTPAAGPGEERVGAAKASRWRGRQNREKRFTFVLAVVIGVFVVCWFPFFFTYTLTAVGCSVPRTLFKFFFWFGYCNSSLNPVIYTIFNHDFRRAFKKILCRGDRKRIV
In short: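 Compounds (1% DMSO vehicle, various concentrations) competed against 2 nM [^3H]MK-912 on recombinant receptor membranes for 60 min at 25° C, Tris-HCl pH 7.4 buffer with Mg2+, Ca2+, BSA. Bound radioligand filtered and counted; 10 μM rauwolscine set nonspecific binding. Values: percent inhibition of specific binding or estimated Ki.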

[2] = biological target: T2, Human adrenergic α1B receptor (Homo sapiens, UniProt P35368); experiment: Radioligand binding, adrenergic α1B (Protocol Group B); conditions: for inhibition at 0.3 µM / Percentage inhibition of ligand binding, Adrenergic α1B (0.3 μM): 0.3 μM compound; for inhibition at 0.3 µM: read-out: Percentage inhibition of ligand binding, Adrenergic α1B (0.3 μM); for Ki: estimated Ki
T2 sequence (P35368 1-520): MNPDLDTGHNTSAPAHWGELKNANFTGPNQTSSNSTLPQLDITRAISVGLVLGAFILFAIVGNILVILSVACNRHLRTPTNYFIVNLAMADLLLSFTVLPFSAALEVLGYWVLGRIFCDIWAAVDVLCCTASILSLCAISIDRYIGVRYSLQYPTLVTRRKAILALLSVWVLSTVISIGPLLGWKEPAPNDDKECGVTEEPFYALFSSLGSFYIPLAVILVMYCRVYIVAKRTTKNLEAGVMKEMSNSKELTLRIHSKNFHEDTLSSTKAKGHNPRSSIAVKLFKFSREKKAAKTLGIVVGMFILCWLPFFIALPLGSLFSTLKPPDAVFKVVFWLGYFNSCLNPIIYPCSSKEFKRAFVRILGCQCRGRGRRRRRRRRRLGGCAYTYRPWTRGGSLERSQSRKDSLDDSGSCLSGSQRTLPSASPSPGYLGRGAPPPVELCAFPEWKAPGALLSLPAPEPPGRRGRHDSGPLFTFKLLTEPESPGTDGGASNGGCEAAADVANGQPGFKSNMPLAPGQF
In short: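 Values are percent inhibition of specific [3H]prazosin (0.3 nM) binding or estimated Ki, from filtration counting. Human α1B recombinant membranes, Tris-HCl pH 7.4 buffer with MgCl2 and EDTA, 60 min at 25 °C, 1% DMSO vehicle; 10 μM prazosin defined nonspecific binding.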

[3] = biological target: T3, Human adrenergic α2B receptor (Homo sapiens, UniProt P18089); experiment: Radioligand binding, adrenergic α2B (Protocol Group B); conditions: for inhibition at 0.01 µM / Percentage inhibition of ligand binding, Adrenergic α2B (10 nM): 10 nM compound; for inhibition at 0.01 µM: read-out: Percentage inhibition of ligand binding, Adrenergic α2B (10 nM); for inhibition at 0.03 µM / Percentage inhibition of ligand binding, Adrenergic α2B (30 nM): 30 nM compound; for inhibition at 0.03 µM: read-out: Percentage inhibition of ligand binding, Adrenergic α2B (30 nM); for inhibition at 0.1 µM: read-out: Percentage inhibition of ligand binding, Adrenergic α2B (0.1 μM); for Ki: estimated Ki, read-out: Ki α2B; for Percentage inhibition of ligand binding, Adrenergic α2B (10 nM): 0.01 µM; for Percentage inhibition of ligand binding, Adrenergic α2B (30 nM): 0.03 µM
T3 sequence (P18089 1-450): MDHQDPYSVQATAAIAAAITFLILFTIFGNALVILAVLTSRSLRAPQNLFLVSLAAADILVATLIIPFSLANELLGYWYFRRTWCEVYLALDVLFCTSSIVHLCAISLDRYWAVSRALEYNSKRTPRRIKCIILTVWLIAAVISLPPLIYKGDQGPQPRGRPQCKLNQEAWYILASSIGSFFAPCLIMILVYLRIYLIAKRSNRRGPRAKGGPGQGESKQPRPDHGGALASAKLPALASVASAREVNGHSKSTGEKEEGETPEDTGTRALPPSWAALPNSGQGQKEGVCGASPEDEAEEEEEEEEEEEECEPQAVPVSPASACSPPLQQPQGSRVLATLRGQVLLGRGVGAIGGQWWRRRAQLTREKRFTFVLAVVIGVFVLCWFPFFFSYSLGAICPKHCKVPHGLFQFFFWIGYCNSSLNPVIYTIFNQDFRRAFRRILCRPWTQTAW
In short: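 Compounds at various concentrations in 1% DMSO were tested on recombinant membranes in Tris-HCl pH 7.4 buffer containing MgCl2, CaCl2 and 0.2% BSA.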

[4] = 0.1 μM compound, Protocol Group B
[5] = 3.2 nM compound, concentration series, 0.0032 µM
[6] = 10 nM compound, concentration series, 0.01 µM
[7] = 0.032 μM compound, concentration series, 0.032 µM
[8] = 0.32 μM compound, concentration series, 0.32 µM
[9] = 1 μM compound, concentration series, 1 µM
[10] = 1 nM compound, concentration series, 0.001 µM

inhibition at 0.1 µM [1]: 84%
inhibition at 0.3 µM [1]: 91%
Ki [1]: 10 nM
inhibition at 0.1 µM ([2]; 0.1 μM compound, Protocol Group B, read-out: Percentage inhibition of ligand binding, Adrenergic α1B (0.1 μM)): 69%
inhibition at 0.3 µM ([2]; Protocol Group B): 91%
Ki ([2]; Protocol Group B): 16 nM
inhibition at 0.01 µM ([3]; Protocol Group B): 93%
inhibition at 0.03 µM ([3]; Protocol Group B): 98%
inhibition at 0.1 µM [3, 4]: 100%
Ki ([3]; Protocol Group B): 1 nM
SMILES: Cc1ccc2c(c1)c1c(n2CC(OCC2CCC2)c2ccncc2)CCN(C)C1 (single isomer, unassigned) [59a]

inhibition at 0.1 µM [1]: 80%
inhibition at 0.3 µM [1]: 89%
Ki [1]: 13 nM
Percentage inhibition of ligand binding, Adrenergic α1B (0.1 μM) [2, 4]: 75%
inhibition at 0.3 µM ([2]; Protocol Group B): 90%
Ki ([2]; Protocol Group B): 11.4 nM
inhibition at 0.01 µM ([3]; Protocol Group B): 99%
inhibition at 0.03 µM ([3]; Protocol Group B): 100%
inhibition at 0.1 µM [3, 4]: 101%
Ki ([3]; Protocol Group B): 0.84 nM
SMILES: CC(O)(Cn1c2c(c3cc(Cl)cc(F)c31)C1CCCN1CC2)c1ccncc1 (single isomer, unassigned) [52a]

Percentage inhibition of ligand binding, Adrenergic α2A (0.1 μM) [1]: 94%
Percentage inhibition of ligand binding, Adrenergic α2A (0.3 μM) [1]: 102%
Ki [1]: 2.4 nM
Percentage inhibition of ligand binding, Adrenergic α1B (0.1 μM) [2, 4]: 74%
Percentage inhibition of ligand binding, Adrenergic α1B (0.3 μM) ([2]; Protocol Group B): 94%
Ki ([2]; Protocol Group B): 7.3 nM
Percentage inhibition of ligand binding, Adrenergic α2B (10 nM) ([3]; Protocol Group B): 106%
Percentage inhibition of ligand binding, Adrenergic α2B (30 nM) ([3]; Protocol Group B): 107%
Ki ([3]; Protocol Group B): 0.79 nM
SMILES: Cc1cc(F)c2c(c1)c1c(n2CC(O)c2ccncc2)CCN2CCCC12 (single isomer, unassigned) [137b]

Percentage inhibition of ligand binding, Adrenergic α2A, 3.2 nM [1, 5]: 12%
Percentage inhibition of ligand binding, Adrenergic α2A, 10 nM [1, 6]: 4%
Percentage inhibition of ligand binding, Adrenergic α2A, 0.032 μM [1, 7]: 27%
Percentage inhibition of ligand binding, Adrenergic α2A (0.1 μM) [1]: 51%
Percentage inhibition of ligand binding, Adrenergic α2A (0.3 μM) [1]: 77%
Percentage inhibition of ligand binding, Adrenergic α2A, 0.32 μM [1, 8]: 67%
Percentage inhibition of ligand binding, Adrenergic α2A, 1 μM [1, 9]: 84%
Percentage inhibition of ligand binding, Adrenergic α2A, 3.2 μM ([1]; 3.2 μM compound, concentration series, 3.2 µM): 95%
inhibition at 10 µM ([1]; 10 μM compound, concentration series, read-out: Percentage inhibition of ligand binding, Adrenergic α2A, 10 μM): 100%
Ki [1]: 36 nM
Percentage inhibition of ligand binding, Adrenergic α1B, 1 nM [2, 10]: 3%
Percentage inhibition of ligand binding, Adrenergic α1B, 3.2 nM [2, 5]: 6%
Percentage inhibition of ligand binding, Adrenergic α1B, 10 nM [2, 6]: 1%
Percentage inhibition of ligand binding, Adrenergic α1B, 0.032 μM [2, 7]: 15%
Percentage inhibition of ligand binding, Adrenergic α1B (0.1 μM) [2, 4]: 60%
Percentage inhibition of ligand binding, Adrenergic α1B (0.3 μM) ([2]; Protocol Group B): 85%
Percentage inhibition of ligand binding, Adrenergic α1B, 0.32 μM [2, 8]: 76%
Percentage inhibition of ligand binding, Adrenergic α1B, 1 μM [2, 9]: 87%
inhibition at 3.2 µM ([2]; 3.2 μM compound, concentration series, read-out: Percentage inhibition of ligand binding, Adrenergic α1B, 3.2 μM): 92%
Ki ([2]; Protocol Group B): 37.5 nM
Percentage inhibition of ligand binding, Adrenergic α2B, 0.032 nM ([3]; 0.032 nM compound, concentration series, 32 pM): 6%
Percentage inhibition of ligand binding, Adrenergic α2B, 0.1 nM ([3]; 0.1 nM compound, concentration series, 0.0001 µM): 0%
Percentage inhibition of ligand binding, Adrenergic α2B, 0.32 nM ([3]; 0.32 nM compound, concentration series, 0.00032 µM): 2%
Percentage inhibition of ligand binding, Adrenergic α2B, 1 nM [3, 10]: 4%
Percentage inhibition of ligand binding, Adrenergic α2B, 3.2 nM [3, 5]: 31%
Percentage inhibition of ligand binding, Adrenergic α2B (10 nM) ([3]; Protocol Group B): 91%
Percentage inhibition of ligand binding, Adrenergic α2B (30 nM) ([3]; Protocol Group B): 97%
Percentage inhibition of ligand binding, Adrenergic α2B, 0.032 μM [3, 7]: 95%
Percentage inhibition of ligand binding, Adrenergic α2B (0.1 μM) ([3]; 0.1 μM compound, Protocol Group B, 0.1 µM): 99%
Ki ([3]; Protocol Group B): 2.4 nM
SMILES: Cc1cc(C)c2c(c1)c1c(n2CC(C)(O)c2ccncc2)CCN2CCCC12 (single isomer, unassigned) [19b]
